Source: ChEMBL document CHEMBL1201862, “PubChem BioAssay data set” (2004)
Calls of active or inactive are those of the source.

Legend:
[1] = target: Troponin, cardiac muscle (Homo sapiens, UniProt P19429+P45379+P63316); test: Fluorescence-based biochemical high throughput dose response assay for activators of the calcium sensitivity of cardiac Regulated Thin Filaments (RTF). [Related pubchem assays (depositor defined):AID493008, AID493018, AID504382, AID504383]; type: protein-complex assay
[2] = target: 1-acylglycerol-3-phosphate O-acyltransferase ABHD5/Perilipin-5 (Homo sapiens, UniProt Q00G26+Q8WTS1); test: Luminescence-based biochemical high throughput dose response assay for inhibitors of the interaction of the lipase co-activator protein, abhydrolase domain containing 5 (ABHD5) with perilipin-5 (MLDP; PLIN5) (2K validation set). [Related pubchem assays (depositor defined):AID493035, AID493241]
1-acylglycerol-3-phosphate O-acyltransferase ABHD5/Perilipin-5, sequence (Q00G26 whole entry, the tested form may be a part): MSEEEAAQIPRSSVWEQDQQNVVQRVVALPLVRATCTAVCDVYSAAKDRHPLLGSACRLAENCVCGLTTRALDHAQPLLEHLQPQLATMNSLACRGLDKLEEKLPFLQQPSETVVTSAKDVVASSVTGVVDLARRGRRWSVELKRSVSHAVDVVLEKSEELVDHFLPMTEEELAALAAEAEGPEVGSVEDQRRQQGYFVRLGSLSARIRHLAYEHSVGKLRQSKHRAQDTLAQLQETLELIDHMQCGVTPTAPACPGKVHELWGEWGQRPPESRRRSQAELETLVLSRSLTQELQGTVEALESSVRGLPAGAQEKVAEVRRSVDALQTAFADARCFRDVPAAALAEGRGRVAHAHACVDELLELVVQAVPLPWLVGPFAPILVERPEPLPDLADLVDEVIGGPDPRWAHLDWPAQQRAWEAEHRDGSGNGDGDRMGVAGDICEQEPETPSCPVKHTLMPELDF
1-acylglycerol-3-phosphate O-acyltransferase ABHD5/Perilipin-5, sequence (Q8WTS1 whole entry, the tested form may be a part): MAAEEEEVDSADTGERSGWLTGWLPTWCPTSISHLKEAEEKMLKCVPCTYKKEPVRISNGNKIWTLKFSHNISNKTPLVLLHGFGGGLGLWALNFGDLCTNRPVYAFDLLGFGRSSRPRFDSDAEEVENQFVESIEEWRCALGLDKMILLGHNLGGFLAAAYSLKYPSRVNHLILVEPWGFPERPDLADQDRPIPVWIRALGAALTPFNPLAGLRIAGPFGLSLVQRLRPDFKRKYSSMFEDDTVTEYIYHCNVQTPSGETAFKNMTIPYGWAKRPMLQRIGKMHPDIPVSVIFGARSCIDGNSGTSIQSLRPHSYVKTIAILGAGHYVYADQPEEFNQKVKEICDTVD

[3] = target: Perilipin-1/ABHD5 (Homo sapiens, UniProt O60240+Q8WTS1); test: Luminescence-based biochemical high throughput dose response assay for inhibitors of the interaction of the lipase co-activator protein, abhydrolase domain containing 5 (ABHD5) with perilipin-1 (PLIN1) (2K validation set). [Related pubchem assays (depositor defined):AID493027, AID493057]
Perilipin-1/ABHD5, sequence (Q8WTS1 whole entry, the tested form may be a part): as above
Perilipin-1/ABHD5, sequence (O60240 whole entry, the tested form may be a part): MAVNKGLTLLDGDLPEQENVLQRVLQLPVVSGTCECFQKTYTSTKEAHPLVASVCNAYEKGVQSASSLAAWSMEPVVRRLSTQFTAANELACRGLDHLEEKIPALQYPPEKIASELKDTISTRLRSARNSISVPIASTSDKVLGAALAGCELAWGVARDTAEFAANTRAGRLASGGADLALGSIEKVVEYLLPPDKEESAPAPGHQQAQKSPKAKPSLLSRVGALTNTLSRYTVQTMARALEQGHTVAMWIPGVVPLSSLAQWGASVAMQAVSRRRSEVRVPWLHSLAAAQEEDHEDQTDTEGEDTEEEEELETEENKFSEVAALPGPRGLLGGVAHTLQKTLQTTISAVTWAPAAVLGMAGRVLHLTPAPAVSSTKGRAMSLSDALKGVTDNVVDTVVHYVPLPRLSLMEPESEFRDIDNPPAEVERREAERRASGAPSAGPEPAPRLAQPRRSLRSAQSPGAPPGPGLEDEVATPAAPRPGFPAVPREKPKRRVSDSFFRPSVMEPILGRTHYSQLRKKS

[4] = A Cell Based Secondary Assay To Explore Cytotoxicity of Compounds that Sensitize Mycobacterium Tuberculosis to Beta-Lactam Antibiotics.; type: functional
[5] = target: NACHT, LRR and PYD domains-containing protein 3 (Homo sapiens, UniProt Q96P20); test: NALP3 inhibitors in yeast, dose response, luminescent (AID 488799); type: functional
NACHT, LRR and PYD domains-containing protein 3, sequence (Q96P20 whole entry, the tested form may be a part): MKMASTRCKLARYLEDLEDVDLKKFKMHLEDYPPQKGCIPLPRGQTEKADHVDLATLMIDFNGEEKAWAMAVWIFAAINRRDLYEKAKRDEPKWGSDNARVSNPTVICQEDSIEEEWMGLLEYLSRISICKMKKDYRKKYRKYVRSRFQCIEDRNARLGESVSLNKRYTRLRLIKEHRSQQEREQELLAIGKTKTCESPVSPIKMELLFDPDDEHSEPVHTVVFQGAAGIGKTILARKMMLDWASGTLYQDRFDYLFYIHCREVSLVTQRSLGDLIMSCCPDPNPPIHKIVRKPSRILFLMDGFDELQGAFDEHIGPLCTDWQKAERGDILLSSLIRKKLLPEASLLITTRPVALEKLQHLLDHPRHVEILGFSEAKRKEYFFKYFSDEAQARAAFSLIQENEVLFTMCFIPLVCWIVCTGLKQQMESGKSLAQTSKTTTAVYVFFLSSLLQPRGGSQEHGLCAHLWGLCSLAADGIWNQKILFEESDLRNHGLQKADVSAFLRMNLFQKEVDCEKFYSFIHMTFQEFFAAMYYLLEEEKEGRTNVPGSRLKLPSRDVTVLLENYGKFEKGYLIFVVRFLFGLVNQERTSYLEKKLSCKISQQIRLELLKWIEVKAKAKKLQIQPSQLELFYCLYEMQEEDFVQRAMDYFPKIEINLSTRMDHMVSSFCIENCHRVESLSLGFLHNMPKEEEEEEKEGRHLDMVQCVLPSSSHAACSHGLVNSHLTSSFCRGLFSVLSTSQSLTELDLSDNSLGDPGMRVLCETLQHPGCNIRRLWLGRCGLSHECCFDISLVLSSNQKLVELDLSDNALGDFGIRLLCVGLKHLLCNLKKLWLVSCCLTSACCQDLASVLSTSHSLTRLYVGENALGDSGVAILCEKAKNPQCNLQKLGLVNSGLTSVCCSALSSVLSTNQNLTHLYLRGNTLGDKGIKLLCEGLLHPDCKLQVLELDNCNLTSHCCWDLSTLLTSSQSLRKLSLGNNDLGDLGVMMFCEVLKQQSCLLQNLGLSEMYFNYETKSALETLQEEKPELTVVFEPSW

[6] = inhibitors of intracellular T. cruzi replication, confirmation, NIH3T3 host cells, beta-gal luminescence (AID 2044); type: functional, cell-based;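 further: intracellular parasites grown in NIH/3T3 mouse fibroblasts as host cells; luminescent beta-galactosidase reporter signal from transgenic T. cruzi replicating inside host cells; inhibitors lower the luminescence signal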
[7] = cytotoxicity toward NIH3T3 fibroblasts, dose response, counter-screen, cell-based, ATP luminescence, mouse fibroblasts (AID 2010); type: functional;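 further: cells exposed to compound for about 90 hours before reading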
[8] = target: T1, Delta-type opioid receptor (Homo sapiens, UniProt P41143); test: HTS Image-Based Screen for Antagonists of the DOR Receptor. [Related pubchem assays (depositor defined):AID1777, AID1785, AID1786, AID2133]; type: functional
T1 sequence (P41143 whole entry): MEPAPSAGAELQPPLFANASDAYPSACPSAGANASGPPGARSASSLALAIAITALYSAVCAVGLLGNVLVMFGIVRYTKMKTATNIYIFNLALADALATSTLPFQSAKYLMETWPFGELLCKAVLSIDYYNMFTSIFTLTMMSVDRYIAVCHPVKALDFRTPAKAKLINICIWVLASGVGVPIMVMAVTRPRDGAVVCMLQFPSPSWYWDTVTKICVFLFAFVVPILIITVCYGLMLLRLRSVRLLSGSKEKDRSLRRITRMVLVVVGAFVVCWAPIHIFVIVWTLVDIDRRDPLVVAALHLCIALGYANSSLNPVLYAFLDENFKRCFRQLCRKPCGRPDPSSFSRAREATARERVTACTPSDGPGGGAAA

[9] = target: T2, Kappa-type opioid receptor (Homo sapiens, UniProt P41145); test: KOR agonist analogs, imaging readout, SAR follow-up, image-based (AID 2359); type: functional
T2 sequence (P41145 whole entry): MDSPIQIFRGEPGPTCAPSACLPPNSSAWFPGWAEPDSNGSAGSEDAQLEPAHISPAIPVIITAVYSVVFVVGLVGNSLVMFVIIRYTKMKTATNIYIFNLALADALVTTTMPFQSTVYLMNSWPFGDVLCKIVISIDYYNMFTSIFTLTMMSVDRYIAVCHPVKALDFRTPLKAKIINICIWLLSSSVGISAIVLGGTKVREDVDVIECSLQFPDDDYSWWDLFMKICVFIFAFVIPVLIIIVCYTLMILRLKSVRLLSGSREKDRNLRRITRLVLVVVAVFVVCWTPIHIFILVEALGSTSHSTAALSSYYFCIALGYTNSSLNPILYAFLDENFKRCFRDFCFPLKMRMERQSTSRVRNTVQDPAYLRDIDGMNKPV

[10] = target: T2, Kappa-type opioid receptor; test: KOR antagonists by imaging, SAR follow-up, image-based (AID 2348); type: functional
[11] = target: T1, Delta-type opioid receptor; test: DOR antagonists, SAR follow-up, image-based (AID 2357); type: functional
[12] = target: T1, Delta-type opioid receptor; test: DOR agonists, SAR follow-up, image-based (AID 2370); type: functional
[13] = target: T3, Mu-type opioid receptor (Homo sapiens, UniProt P35372); test: MOR antagonists, SAR follow-up, image-based (AID 2420); type: functional;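 further: compounds added before stimulation of receptor with agonist DAMGO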
T3 sequence (P35372 whole entry): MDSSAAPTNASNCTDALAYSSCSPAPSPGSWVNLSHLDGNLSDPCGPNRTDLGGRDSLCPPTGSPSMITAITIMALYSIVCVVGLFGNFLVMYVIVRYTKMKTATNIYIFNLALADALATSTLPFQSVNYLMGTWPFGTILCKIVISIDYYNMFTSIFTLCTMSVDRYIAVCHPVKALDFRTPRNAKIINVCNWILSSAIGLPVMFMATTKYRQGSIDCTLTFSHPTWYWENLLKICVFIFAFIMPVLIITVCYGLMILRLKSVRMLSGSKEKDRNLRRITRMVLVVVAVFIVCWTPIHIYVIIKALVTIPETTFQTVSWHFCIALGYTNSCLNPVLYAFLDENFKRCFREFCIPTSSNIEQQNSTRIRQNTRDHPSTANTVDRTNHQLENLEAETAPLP

[14] = target: T2, Kappa-type opioid receptor; type: functional
[15] = target: T2, Kappa-type opioid receptor; test: SAR analysis of small molecule agonists of the kappa opioid receptor via a luminescent beta-arrestin assay. [Related pubchem assays (depositor defined):AID1777, AID1786, AID1966, AID2133, AID2136, AID2348, AID2352, AID2357, AID2359, AID2370, AID2420, AID2478, AID2491, AID2492, AID2493, AID2497, AID2498, AID2500, AID449737, AID488822, AID488842]; type: functional
[16] = target: T2, Kappa-type opioid receptor; type: functional; remark: listed apart in the source
[17] = target: T3, Mu-type opioid receptor; test: MOR agonists by imaging, SAR follow-up, image-based (AID 2352); type: functional
[18] = target: T3, Mu-type opioid receptor; test: HTS Image-Based Screen for Agonists of the MOR Receptor. [Related pubchem assays (depositor defined):AID1777, AID1785, AID1786, AID2133]; type: functional
[19] = target: T1, Delta-type opioid receptor; test: HTS Image-Based Screen for Agonists of the DOR Receptor. [Related pubchem assays (depositor defined):AID1777, AID1786, AID2133]; type: functional

## COc1ccccc1C(=O)Oc1ccc2c(c1)O/C(=C\c1ccncc1)C2=O
[1]
  EC50: 13.7 µM (inactive)
[2]
  IC50: 8.12 µM (active)
[3]
  IC50: 6.72 µM (active)

## O=C(CCS(=O)(=O)c1ccccc1)N(CCCN1CCOCC1)c1nc2c(F)cccc2s1
[4]
  CC50: > 40 µM (active)
[5]
  IC50: 2.07 µM (active)
[6]
  EC50: 3.11 µM (active)
[7]
  EC50: 4.45 µM (active)

## CCC(C)(C(=O)NC1CCCCC1)N(Cc1ccco1)C(=O)c1cnccn1 (centres undefined)
[8]
  IC50: > 32 µM (inactive)
[9]
  EC50: 1.36 µM (active)
[10]
  IC50: > 32 µM (inactive)
[11]
  IC50: > 32 µM (inactive)
[12]
  EC50: > 32 µM (inactive)
[13]
  IC50: > 32 µM (inactive)
[14]
  EC50: 2.47 µM
[15]
  EC50: 3.71 µM (active)
[16]
  EC50: 1.75 µM
[17]
  EC50: > 32 µM (inactive)
[18]
  EC50: > 32 µM (inactive)
[19]
  EC50: > 32 µM (inactive)
